The numbers were not newly measured in patent publication US9492446B2, “Manufacturing method of solid dispersion containing itraconazole” (CTC BIO, Inc., priority 2004, dated 2016), which cites them from elsewhere.

Each structure is given as a SMILES string.

For series [1] the following is noted: AIDS patients, higher pH in stomach; oral.

`CCC(C)n1ncn(-c2ccc(N3CCN(c4ccc(OCC5COC(Cn6cncn6)(c6ccc(Cl)cc6Cl)O5)cc4)CC3)cc2)c1=O` (centres unmarked) [Itraconazole]: the water-solubility entry is recorded as “less than 1 ug/ml”. In series [1], the “absorption of itraconazole relative to that of normal people” value was “no more than 50%”.
